{"source": "paper PMC7703437", "about": "“In Vitro Hepatic Metabolism of Curcumin Diethyl Disuccinate by Liver S9 from Different Animal Species” (Frontiers in Pharmacology, 2020)", "experiment": "In vitro metabolism profiling of CDD in human liver S9 (1 mg/ml)", "type": "in vitro ADME", "details": "pooled liver S9; human LS9 1 mg/ml; read-out: t 1/2 (CDD)", "protocol": "The metabolism profiles of CDD were investigated against HLS9, MLS9, DLS9, and RLS9. A stock solution of CDD was prepared at 150 µM in 50% acetonitrile in water before use. The metabolism study was initiated by spiking 735 µl of preincubated LS9 with 15 µl of CDD stock solution, and the mixture was subsequently incubated at 37°C. The final concentrations of CDD and LS9 were 3 μM and 1 mg/ml, respectively. A 50-µl aliquot from the mixture was collected at 0.5, 1, 2, 3, 4, 5, 10, 15, 30, 45, 60, 90, and 120 min and immediately mixed with 100 µl of ice-cold acetonitrile containing 0.45 µM of internal standard DMC to terminate the metabolic reaction. […] The sample at the initial time point (0 min) was prepared as the other samples, except that heat-inactivated HLS9, MLS9, DLS9, and RLS9 (80°C for 20 min; 1 mg/ml protein) were used.\nThe UHPLC system consisted of an Agilent series 1290 quaternary pump with an online degasser, autosampler, column oven, and diode array detector. The mobile phase was composed of (A) 0.1% (v/v) formic acid in acetonitrile and (B) 0.1% (v/v) formic acid in water. Each solution was filtered through a nylon filter (pore size, 0.22 µm; MS® Membrane Filters; Membrane Solutions, United States) before use. The mobile phase flow rate was kept at 1.2 ml/min in a gradient mode using the following elution program: 0–3.0 min, initial A-B (40:60, v/v); 4.5–7.0 min, isocratic elution A-B [50:50, (v/v); 8.5–11.0 min, isocratic elution A-B (60:40, v/v); and 12.0–17.0 min, isocratic elution A-B (40:60, v/v)]. CDD, curcumin, and MSCUR in the supernatant were partitioned using a C8 column (4.6 mm × 50 mm, 2.7 µm; HALO, Advanced Materials Technology, United States) with reference to DMC. The detection wavelength was set at 400 nm (λ max(CDD) = 400 nm, λ max(curcumin) = 427 nm, λ max(MSCUR) = 418 nm, and λ max(DMC) = 421 nm). The column was maintained at 35°C throughout the run, and the supernatant injection volume was set at 20 µl.\nThe concentrations of CDD, curcumin, and MSCUR in the supernatant were determined from the standard plots, which were prepared by spiking individual working solutions of the compounds to heat-inactivated HLS9, MLS9, DLS9, and RLS9 ([Alcorn et al., 2007]; [Montoro-Garcia et al., 2009]; [Singh et al., 2010]). These working standards were extracted with 100 µl of ice-cold acetonitrile containing 0.45 µM of DMC and then 120 μl of the supernatant was diluted with 40 μl of water prior to the UHPLC analysis. The peak area ratios of CDD, curcumin, and MSCUR to the internal standard were computed against linear concentration ranges of 0.025–4.5 µM CDD, 0.025–4.5 µM curcumin, and 0.0125–0.75 µM MSCUR, respectively, with the coefficient of determination (r^2) values greater than 0.99.\nThe percent content of CDD and the metabolites formed upon its incubation with LS9, namely, curcumin and MSCUR, was plotted against incubation time.\nThe following equations were adopted to describe the changes in CDD and MSCUR content over time (t): A = A0e^−k1t (2) B= k1A0/k2−k1(e^−k1t−e^−k2t), (3) where A0 is the CDD concentration at time 0, k 1 is the degradation rate constant of CDD, and k 2 is the degradation rate constant of MSCUR. k 1 and k 2 were determined by using Eqs. 2 and 3, respectively, with nonlinear regression analysis using the SOLVER function of Microsoft Excel for Office 365 MSO (16.0.12527.20986) ([Brown, 2001]). The half-life (t 1/2) was calculated using Eq. 4: t1/2=0.693/k (4)\nThe in vitro intrinsic clearance (CLint,in vitro) of CDD and MSCUR in LS9 was calculated using Eq. 5: CLint, in vitro= k × [V]incubation(ml)/[P]incubation(mg protein), (5) where [V]incubation is the incubation volume in ml, and [P]incubation is the amount of LS9. […]", "data": [{"smiles": "CCOC(=O)CCC(=O)Oc1ccc(/C=C/C(=O)/C=C(O)/C=C/c2ccc(OC(=O)CCC(=O)OCC)c(OC)c2)cc1OC", "note": "[CDD, curcumin diethyl disuccinate]", "values": [{"measurement": "half-life", "value": "27.6 ± 3.6", "unit": "s"}]}]}
